Test results as given in the NIST ThermoML archive (doi:10.1016/j.fluid.2012.09.037).
Numbers after ± are expanded uncertainties.

Assay: xn = mol fraction of the nth substance listed
Conditions: 373.2 K, Liquid; for mass density: Vibrating tube method; for viscosity: Moving piston method

Structure (SMILES): CCCCCCCCCC [decane] + CCCCCCCCCCCCCC
- mass density (100 kPa, x1 = 1): 667.1 ± 0.3 kg/m3
- mass density (1000 kPa, x1 = 1): 668.4 ± 0.4 kg/m3
- mass density (2000 kPa, x1 = 1): 669.6 ± 0.4 kg/m3
- mass density (3000 kPa, x1 = 1): 670.9 ± 0.4 kg/m3
- mass density (4000 kPa, x1 = 1): 672.1 ± 0.4 kg/m3
- mass density (5000 kPa, x1 = 1): 673.4 ± 0.4 kg/m3
- mass density (6000 kPa, x1 = 1): 674.5 ± 0.4 kg/m3
- mass density (7000 kPa, x1 = 1): 675.7 ± 0.4 kg/m3
- mass density (8000 kPa, x1 = 1): 676.9 ± 0.4 kg/m3
- mass density (9000 kPa, x1 = 1): 678.1 ± 0.4 kg/m3
- mass density (10000 kPa, x1 = 1): 679.2 ± 0.4 kg/m3

Structure (SMILES): CCCCCCCCCC [decane] + O=C=O
- viscosity (1120 kPa, x2 = 0.075): 0.35 ± 0.04 mPa·s
- mass density (1120 kPa, x2 = 0.075): 669 ± 2 kg/m3
- viscosity (1950 kPa, x2 = 0.124): 0.33 ± 0.03 mPa·s
- mass density (1950 kPa, x2 = 0.124): 671 ± 2 kg/m3
- viscosity (3040 kPa, x2 = 0.192): 0.29 ± 0.03 mPa·s
- mass density (3040 kPa, x2 = 0.192): 672 ± 2 kg/m3
- viscosity (4010 kPa, x2 = 0.246): 0.27 ± 0.03 mPa·s
- mass density (4010 kPa, x2 = 0.246): 674 ± 2 kg/m3
- viscosity (5110 kPa, x2 = 0.313): 0.25 ± 0.03 mPa·s
- mass density (5110 kPa, x2 = 0.313): 676 ± 2 kg/m3
- viscosity (6190 kPa, x2 = 0.367): 0.22 ± 0.02 mPa·s
- mass density (6190 kPa, x2 = 0.367): 677 ± 2 kg/m3

Structure (SMILES): CCCCCCCCCCCCCC [tetradecane] + CCCCCCCCCC
- mass density (100 kPa, x2 = 0): 705.4 ± 0.3 kg/m3
- mass density (100 kPa, x2 = 0.25): 697.8 ± 0.3 kg/m3
- mass density (100 kPa, x2 = 0.5): 689.1 ± 0.4 kg/m3
- mass density (100 kPa, x2 = 0.75): 679.1 ± 0.4 kg/m3
- mass density (1000 kPa, x2 = 0): 706.5 ± 0.4 kg/m3
- mass density (1000 kPa, x2 = 0.25): 698.8 ± 0.4 kg/m3
- mass density (1000 kPa, x2 = 0.5): 690.3 ± 0.4 kg/m3
- mass density (1000 kPa, x2 = 0.75): 680.3 ± 0.4 kg/m3
- mass density (2000 kPa, x2 = 0): 707.6 ± 0.4 kg/m3
- mass density (2000 kPa, x2 = 0.25): 699.9 ± 0.4 kg/m3
- mass density (2000 kPa, x2 = 0.5): 691.5 ± 0.4 kg/m3
- mass density (2000 kPa, x2 = 0.75): 681.6 ± 0.4 kg/m3
- mass density (3000 kPa, x2 = 0): 708.6 ± 0.4 kg/m3
- mass density (3000 kPa, x2 = 0.25): 701 ± 0.4 kg/m3
- mass density (3000 kPa, x2 = 0.5): 692.6 ± 0.4 kg/m3
- mass density (3000 kPa, x2 = 0.75): 682.7 ± 0.4 kg/m3
- mass density (4000 kPa, x2 = 0): 709.6 ± 0.4 kg/m3
- mass density (4000 kPa, x2 = 0.25): 702 ± 0.4 kg/m3
- mass density (4000 kPa, x2 = 0.5): 693.7 ± 0.4 kg/m3
- mass density (4000 kPa, x2 = 0.75): 683.9 ± 0.4 kg/m3
- mass density (5000 kPa, x2 = 0): 710.7 ± 0.4 kg/m3
- mass density (5000 kPa, x2 = 0.25): 703.1 ± 0.4 kg/m3
- mass density (5000 kPa, x2 = 0.5): 694.8 ± 0.4 kg/m3
- mass density (5000 kPa, x2 = 0.75): 685.1 ± 0.4 kg/m3
- mass density (6000 kPa, x2 = 0): 711.6 ± 0.4 kg/m3
- mass density (6000 kPa, x2 = 0.25): 704.1 ± 0.4 kg/m3
- mass density (6000 kPa, x2 = 0.5): 695.9 ± 0.4 kg/m3
- mass density (6000 kPa, x2 = 0.75): 686.2 ± 0.4 kg/m3
- mass density (7000 kPa, x2 = 0): 712.6 ± 0.4 kg/m3
- mass density (7000 kPa, x2 = 0.25): 705.2 ± 0.4 kg/m3
- mass density (7000 kPa, x2 = 0.5): 697 ± 0.4 kg/m3
- mass density (7000 kPa, x2 = 0.75): 687.3 ± 0.4 kg/m3
- mass density (8000 kPa, x2 = 0): 713.6 ± 0.4 kg/m3
- mass density (8000 kPa, x2 = 0.25): 706.2 ± 0.4 kg/m3
- mass density (8000 kPa, x2 = 0.5): 698 ± 0.4 kg/m3
- mass density (8000 kPa, x2 = 0.75): 688.4 ± 0.4 kg/m3
- mass density (9000 kPa, x2 = 0): 714.6 ± 0.4 kg/m3
- mass density (9000 kPa, x2 = 0.25): 707.2 ± 0.4 kg/m3
- mass density (9000 kPa, x2 = 0.5): 699 ± 0.4 kg/m3
- mass density (9000 kPa, x2 = 0.75): 689.5 ± 0.4 kg/m3
- mass density (10000 kPa, x2 = 0): 715.5 ± 0.4 kg/m3
- mass density (10000 kPa, x2 = 0.25): 708.2 ± 0.4 kg/m3
- mass density (10000 kPa, x2 = 0.5): 700.1 ± 0.4 kg/m3
- mass density (10000 kPa, x2 = 0.75): 690.6 ± 0.4 kg/m3

Structure (SMILES): CCCCCCCCCCCCCC [tetradecane] + O=C=O
- viscosity (960 kPa, x2 = 0.07): 0.6 ± 0.06 mPa·s
- mass density (960 kPa, x2 = 0.07): 707 ± 2 kg/m3
- viscosity (2000 kPa, x2 = 0.135): 0.55 ± 0.06 mPa·s
- mass density (2000 kPa, x2 = 0.135): 709 ± 2 kg/m3
- viscosity (2970 kPa, x2 = 0.198): 0.51 ± 0.05 mPa·s
- mass density (2970 kPa, x2 = 0.198): 710 ± 2 kg/m3
- viscosity (4000 kPa, x2 = 0.261): 0.47 ± 0.05 mPa·s
- mass density (4000 kPa, x2 = 0.261): 711 ± 2 kg/m3
- viscosity (4920 kPa, x2 = 0.307): 0.44 ± 0.04 mPa·s
- mass density (4920 kPa, x2 = 0.307): 713 ± 2 kg/m3
- viscosity (5970 kPa, x2 = 0.358): 0.41 ± 0.04 mPa·s
- mass density (5970 kPa, x2 = 0.358): 714 ± 2 kg/m3
